Source: patent EP3418270A1, “NOVEL BIPHENYLSULFOXIMINES AS ALLOSTERIC MODULATORS OF THE DOPAMINE D1 RECEPTOR” (Universidad Complutense De Madrid, priority 2017, dated 2018)
One block for each compound: values may come before it.

How the values were obtained:
human D1 receptors = target: T1, human D1 receptors (Homo sapiens, UniProt P21728); assay: Allosteric modulation of human dopamine D1 receptors: dopamine-induced cAMP production (HTRF) in SK-N-MC cells; assay type: cell-based; details: for Potentiation (%) at 10 µM / Potentiation (%) at 5 µM: potentiation of dopamine Emax; for Potentiation (%) at 10 µM: compound at 10 µM; for Potentiation (%) at 5 µM: compound at 5 µM (values marked *)
T1 construct: endogenously expressed human D1 receptors in SK-N-MC cell line; host or cells: SK-N-MC human neuroblastoma cells
Protocol: Functional studies at human D1 receptors were carried out in endogenously expressed human D1 receptors in SK-N-MC cell line (ATCC). SK-N-MC cells were thawed and seeded into a black 96-well plate (1×10^4 cells/well) in Optimem containing 500 µM IBMX.
(§1) Cells were treated with the test compounds for 15 min at 25°C and dopamine was added to the corresponding wells and incubated for additional 15 min at 25°C. Treated cells were lysed and the cAMP concentration was measured by homogeneous time-resolved fluorescence energy transfer (HTRF; Cisbio Kit). HTRF was read in a Tecan M1000 Genius Pro reader (λexcitation = 320 nm, λemission = 620 nm and 665 nm, 30 flashes).
(§2) Data were normalized to dopamine maximum effect and fitted to a 4-parameter logistic equation Prism v2.1 (GraphPad Inc).
If the observed effect is dose-dependent, compounds were then tested in the cAMP assay, this time maintaining a fixed concentration of dopamine (=EC70) while increasing the concentration of the compound, and the potentiation of the dopamine effect was measured.

[1] = target: T2, human dopamine D1 receptor (Homo sapiens, UniProt P21728); assay: Radioligand binding assay at human D1 receptors ([3H]SCH23390 displacement, membranes); design: purchased Perkin Elmer; details: 0.7 nM [3H]SCH23390, orthosteric site
Protocol: Assays were carried out by using plasma membranes (12 µg/well) expressing human dopamine D1 receptor (Perkin Elmer). Membranes were incubated in a Multiscreen FC 96-well plate (Millipore) with 0.7 nM [^3H]SCH23390 (Perkin Elmer) and increasing amounts of the test compound in assay buffer (50 mM Tris-HCl, 5 mM MgCl2; pH=7.4) for 1 h at 27°C. After this time the well content was filtered through a Millipore manifold and membranes washed 4 times with assay buffer. Plate was dried and radioactivity was measured in a Microbeta Trilux liquid scintillation reader (Perkin-Elmer). Non-specific binding was determined in the presence of 1 µM (+)-butaclamol.
Data were normalized to percentage of specific binding and fitted to a 4-parameter logistic equation with Prism v2.1 (GraphPad Inc).

[2] = target: T3, recombinant human D2 receptors (Homo sapiens, UniProt P14416); assay: Functional assay at human D2 receptors: cAMP (HTRF), forskolin-stimulated CHO cells; assay type: cell-based; details: Figure 3
T3 construct: expressed in transfected cells; host or cells: CHO cell line, stably transfected in-house
Protocol: Functional studies at D2 receptors were carried out in recombinant human D2 receptors stably transfected in-house in a CHO cell line. Cells were thawed and seeded into a 96-well plate (5×10^3 cells/well) in Optimem containing 500 µM IBMX.
as §1, with “for 5” for “for 15”, “at 37°C” for “at 25°C”, “additional 10” for “additional 15”, “at 37°C. After this time cells were treated with 10 µM forskolin for 5 min at 37°C.” for “at 25°C.”
as §2

human D3 receptors = human D3 receptors (Homo sapiens, UniProt P35462); assay: Functional assay at human D3 receptors: PatHunter Beta-arrestin express GPCR assay; assay type: cell-based; details: beta-arrestin translocation, Figure 4
Protocol: (§3) Functional studies at both human D3 and D4 receptors receptors were carried by employing a PatHunter Beta-arrestin express GPCR assay kit from DiscoverX. Cells were plated maintained for 48 h at 37°C in a 5% CO2 atmosphere in cell plating reagen t provided in the kit.
(§4) Cells were treated with the test compounds for 30 min at 37°C and dopamine was added to the corresponding wells and incubated for additional 90 min at 37°C. Cells were then treated with the working detection solution provided with the kit for 1 h and beta-arrestin translocation was measured by luminescence detection (integration time=500 ms) in a Tecan M1000 Genius Pro reader.
as §2

[3] = target: T2, human dopamine D1 receptor; assay: Agonist effect at human dopamine D1 receptors: cAMP (HTRF) in SK-N-MC cells without dopamine; assay type: cell-based; design: endogenously expressed human D1 receptors in SK-N-MC cell line; host or cells: SK-N-MC human neuroblastoma cells; details: in the absence of dopamine, cAMP (Figure 2)
Protocol: as §1, with “SK-N-MC cells seeded into a black 96-well plate (1×10^4 cells/well) in Optimem containing 500 µM IBMX” for “Cells”, “for” for “for 15 min at 25°C and dopamine was added to the corresponding wells and incubated for additional”
as §2

human D4 receptors = target: T4, human D4 receptors (Homo sapiens, UniProt P21917); assay: Functional assay at human D4 receptors: PatHunter Beta-arrestin express GPCR assay; assay type: cell-based; details: beta-arrestin translocation, Figure 5
T4 sequence (P21917 1-419): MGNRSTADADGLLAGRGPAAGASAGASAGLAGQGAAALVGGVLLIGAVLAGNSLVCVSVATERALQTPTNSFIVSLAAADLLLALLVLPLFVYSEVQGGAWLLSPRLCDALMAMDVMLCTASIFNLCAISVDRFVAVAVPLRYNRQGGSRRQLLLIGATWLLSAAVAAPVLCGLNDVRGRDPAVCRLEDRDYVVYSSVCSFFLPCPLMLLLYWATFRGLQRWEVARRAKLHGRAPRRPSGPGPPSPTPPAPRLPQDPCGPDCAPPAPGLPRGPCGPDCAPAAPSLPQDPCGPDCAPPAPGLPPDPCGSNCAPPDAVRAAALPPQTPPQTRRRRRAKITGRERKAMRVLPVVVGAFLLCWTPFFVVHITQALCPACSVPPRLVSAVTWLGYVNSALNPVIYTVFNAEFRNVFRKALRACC
Protocol: as §3, §4, §2

human D5 receptors = human D5 receptors (Homo sapiens, UniProt P21918); assay: Functional assay at human D5 receptors: cAMP Hunter express DRD5 assay; assay type: cell-based; details: cAMP formation, Figure 6
Protocol: Functional studies at human D5 receptors receptors were carried by employing a cAMP Hunter express DRD5 assay kit from DiscoverX. Cells were plated maintained for 24 h at 37°C in a 5% CO2 atmosphere in cell plating reagent provided in the kit.
as §4, with “15” for “30”, “30” for “90”, “cAMP” for “working”, “then cAMP solution A was added to each well and incubated for 3 h at RT. cAMP formation” for “beta-arrestin translocation”
as §2

T3 sequence (P14416 whole entry): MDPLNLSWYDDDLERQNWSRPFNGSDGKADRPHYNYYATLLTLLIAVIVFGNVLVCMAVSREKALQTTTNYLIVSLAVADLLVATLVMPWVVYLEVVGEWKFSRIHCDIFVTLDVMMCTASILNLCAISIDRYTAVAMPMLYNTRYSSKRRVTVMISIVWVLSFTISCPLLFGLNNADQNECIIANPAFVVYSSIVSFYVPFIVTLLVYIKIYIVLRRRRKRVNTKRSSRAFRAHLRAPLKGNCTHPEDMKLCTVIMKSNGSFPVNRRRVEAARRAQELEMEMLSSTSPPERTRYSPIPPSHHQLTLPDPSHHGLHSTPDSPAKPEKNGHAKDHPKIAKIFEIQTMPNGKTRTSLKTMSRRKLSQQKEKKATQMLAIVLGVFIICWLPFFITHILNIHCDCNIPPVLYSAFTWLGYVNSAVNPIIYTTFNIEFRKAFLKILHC
Sequence of human D3 receptors (P35462 whole entry): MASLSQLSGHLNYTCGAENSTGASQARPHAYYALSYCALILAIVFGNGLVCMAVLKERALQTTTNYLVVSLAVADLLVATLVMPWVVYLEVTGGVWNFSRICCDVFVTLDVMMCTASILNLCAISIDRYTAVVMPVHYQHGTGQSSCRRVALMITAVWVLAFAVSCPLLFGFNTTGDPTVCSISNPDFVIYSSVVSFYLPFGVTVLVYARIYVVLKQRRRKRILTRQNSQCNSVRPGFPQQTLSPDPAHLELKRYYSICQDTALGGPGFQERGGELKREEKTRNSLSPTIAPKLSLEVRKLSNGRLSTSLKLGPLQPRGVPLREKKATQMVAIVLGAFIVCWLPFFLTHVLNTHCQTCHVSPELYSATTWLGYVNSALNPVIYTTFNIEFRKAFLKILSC
T2 sequence (P21728 whole entry): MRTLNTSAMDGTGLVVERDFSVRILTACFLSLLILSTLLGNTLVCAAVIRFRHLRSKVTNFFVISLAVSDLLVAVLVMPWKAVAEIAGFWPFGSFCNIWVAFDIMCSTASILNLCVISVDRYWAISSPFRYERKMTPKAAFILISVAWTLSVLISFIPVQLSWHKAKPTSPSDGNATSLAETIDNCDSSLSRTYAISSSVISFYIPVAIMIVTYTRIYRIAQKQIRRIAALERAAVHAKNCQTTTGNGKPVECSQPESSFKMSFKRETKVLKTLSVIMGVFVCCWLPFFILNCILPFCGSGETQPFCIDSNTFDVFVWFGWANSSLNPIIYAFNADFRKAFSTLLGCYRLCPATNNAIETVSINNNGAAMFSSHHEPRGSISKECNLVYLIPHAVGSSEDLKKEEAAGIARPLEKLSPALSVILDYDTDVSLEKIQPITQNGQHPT
T1 sequence (P21728 whole entry): as above
Sequence of human D5 receptors (P21918 whole entry): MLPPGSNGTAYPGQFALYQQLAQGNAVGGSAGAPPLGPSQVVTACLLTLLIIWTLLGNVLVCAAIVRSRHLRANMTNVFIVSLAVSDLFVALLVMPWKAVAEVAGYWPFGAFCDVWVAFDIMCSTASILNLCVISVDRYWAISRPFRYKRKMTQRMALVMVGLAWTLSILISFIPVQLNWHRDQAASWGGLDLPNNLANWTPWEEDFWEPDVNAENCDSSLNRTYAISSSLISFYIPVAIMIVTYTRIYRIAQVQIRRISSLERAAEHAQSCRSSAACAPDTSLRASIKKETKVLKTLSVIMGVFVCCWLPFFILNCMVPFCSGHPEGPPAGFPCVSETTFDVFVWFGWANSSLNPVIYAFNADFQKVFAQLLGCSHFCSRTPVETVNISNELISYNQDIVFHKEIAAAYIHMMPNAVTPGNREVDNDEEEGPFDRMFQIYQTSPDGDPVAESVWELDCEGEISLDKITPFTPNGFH

- Potentiation (%) at 10 µM (human D1 receptors): 33%
Structure (SMILES): CN=S(C)(=O)c1ccc(-c2ccccc2OC(F)F)cc1Cl (stereo not drawn) [Ie, 3'-Chloro-2-(difluoromethoxy)-4'-(N,S-dimethylsulfonimidoyl)biphenyl]

- inhibition at 10 µM [1]: 6%
- functional subtype selectivity against dopamine D2 receptor [2]: functional subtype selectivity
- functional subtype selectivity against D3 receptor (human D3 receptors): functional subtype selectivity
- Potentiation (%) at 5 µM (human D1 receptors): 47%
- intrinsic agonist activity [3]: no potentiation
- functional subtype selectivity against D4 receptor (human D4 receptors): functional subtype selectivity
- functional subtype selectivity against D5 receptor (human D5 receptors): functional subtype selectivity
Structure (SMILES): C[S@](=N)(=O)c1ccc(-c2ccccc2OCF)cc1 [(S)-Ik, (S)-2-(Fluoromethoxy)-4'-(S-methylsulfonimidoyl)biphenyl]

- Potentiation (%) at 10 µM (human D1 receptors): 39%
Structure (SMILES): CCS(=N)(=O)c1ccc(-c2ccccc2OC(F)F)cc1 (stereo not drawn) [Ic, 2-(Difluoromethoxy)-4'-(S-ethylsulfonimidoyl)biphenyl]

- Potentiation (%) at 10 µM (human D1 receptors): 30%
Structure (SMILES): CN=S(C)(=O)c1ccc(-c2ccccc2OCF)cc1 (stereo not drawn) [Ih, 4'-(N,S-Dimethylsulfonimidoyl)-2-(fluoromethoxy)biphenyl]

- inhibition at 10 µM [1]: 12%
- functional subtype selectivity against dopamine D2 receptor [2]: functional subtype selectivity
- functional subtype selectivity against D3 receptor (human D3 receptors): functional subtype selectivity
- Potentiation (%) at 5 µM (human D1 receptors): 63%
- intrinsic agonist activity [3]: no potentiation
- functional subtype selectivity against D4 receptor (human D4 receptors): functional subtype selectivity
- functional subtype selectivity against D5 receptor (human D5 receptors): functional subtype selectivity
Structure (SMILES): C[S@@](=N)(=O)c1ccc(-c2ccccc2OCF)cc1 [(R)-Ik, (R)-2-(Fluoromethoxy)-4'-(S-methylsulfonimidoyl)biphenyl]

- Potentiation (%) at 10 µM (human D1 receptors): 54%
Structure (SMILES): CCS(=N)(=O)c1ccc(-c2ccccc2OCF)cc1 (stereo not drawn) [Ii, 2-(Fluoromethoxy)-4'-(S-ethylsulfonimidoyl)biphenyl]

- Potentiation (%) at 10 µM (human D1 receptors): 27%
Structure (SMILES): CS(=N)(=O)c1ccc(-c2ccccc2OC(F)F)cc1 (stereo not drawn) [Ia, 2-(Difluoromethoxy)-4'-(S-methylsulfonimidoyl)biphenyl]

- Potentiation (%) at 10 µM (human D1 receptors): 27%
Structure (SMILES): CN=S(C)(=O)c1ccc(-c2ccccc2OC(F)(F)F)cc1Cl (stereo not drawn) [Ig, 3'-Chloro-2-(trifluoromethoxy)-4'-(N,S-dimethylsulfonimidoyl)biphenyl]

- Potentiation (%) at 10 µM (human D1 receptors): 25%
Structure (SMILES): CS(=N)(=O)c1ccc(-c2ccccc2OC(F)F)cc1Cl (stereo not drawn) [Id, 3'-Chloro-2-(difluoromethoxy)-4'-(S-methylsulfonimidoyl)biphenyl]

- Potentiation (%) at 10 µM (human D1 receptors): 30%
Structure (SMILES): CS(=N)(=O)c1ccc(-c2ccccc2OC(F)(F)F)cc1Cl (stereo not drawn) [If, 3'-Chloro-4'-(S-methylsulfonimidoyl)-2-(trifluoromethoxy)biphenyl]

- Potentiation (%) at 10 µM (human D1 receptors): 64%
Structure (SMILES): CN=S(C)(=O)c1ccc(-c2ccccc2OC(F)F)cc1 (stereo not drawn) [Ib, 2-(Difluoromethoxy)-4'-(N,S-dimethylsulfonimidoyl)biphenyl]

- Potentiation (%) at 10 µM (human D1 receptors): 35%
Structure (SMILES): CN=S(C)(=O)c1ccc(-c2ccccc2OCF)cc1Cl (stereo not drawn) [Ij, 3'-Chloro-2-(fluoromethoxy)-4'-(N,S-dimethylsulfonimidoyl)biphenyl]

- inhibition at 10 µM [1]: 36%
- functional subtype selectivity against dopamine D2 receptor [2]: functional subtype selectivity
- functional subtype selectivity against D3 receptor (human D3 receptors): functional subtype selectivity
- EC50 (human D1 receptors; potency in the presence of dopamine (fixed concentration = EC70)): 60 nM
- Potentiation (%) at 5 µM (human D1 receptors): 35%
- Potentiation (%) at 10 µM (human D1 receptors): 55%
- intrinsic agonist activity [3]: no potentiation
- functional subtype selectivity against D4 receptor (human D4 receptors): functional subtype selectivity
- functional subtype selectivity against D5 receptor (human D5 receptors): functional subtype selectivity
Structure (SMILES): CS(=N)(=O)c1ccc(-c2ccccc2OCF)cc1 (racemic) [Ik, 2-(Fluoromethoxy)-4'-(S-methylsulfonimidoyl)biphenyl]
